Test results from patent US20140271667A1, “Methods and Compositions for Neoadjuvant Therapy” (The Wistar Institute of Anatomy and Biology, priority 2013, published 2014).

Tests used:
tumor cells [1] = test: F-actin staining (rhodamine-phalloidin), confocal microscopy; format: cell-based, human; conditions: Gamitrinib 5 μM; fluorescence microscopy
Description: Tumor cells growing at low confluency (1-2×10^4/well) on optical grade glass coverslips were treated with vehicle or Gamitrinib (5 μM), fixed in 4% formaldehyde for 15 min at 37° C., washed in PBS, pH 7.4, and permeabilized with 0.1% Triton X-100 for 5 min at 22° C. Slides were washed in PBS, pH 7.4, blocked in 1% BSA/PBS for 30 min, incubated with 1:2000 dilution of phalloidin-rhodamine (Molecular Probes) for 30 min, washed in PBS, pH 7.4, and mounted in Fluoromount G medium (Southern Biotech). Slides were analyzed on a Leica TCS SP2 confocal laser microscope with a 100× oil objective.

tumor cells [2] = conditions: previous data (23); cited from earlier work

Gamitrinib
actin cytoskeletal assembly (tumor cells [1]): suppressed actin cytoskeletal assembly
O2 consumption in tumor cells (tumor cells [2]): inhibited O2 consumption
